Measurements from US6998143B1, “Ferric fortification system” (Nestec S.A., priority 1999, dated 2006).

Tests used:
[1] = test system: weanling male Sprague-Dawley rats; experiment: Iron bioavailability by hemoglobin repletion in anemic rats (slope-ratio); type: in vivo, rat
Method: Animals:—The animals used are weanling male Sprague-Dawley rats aged 3 weeks (IFFA-CREDO, L'Arbresle, France).
This diet is casein based and provides for the nutritional requirements of growing rats except for iron.
Diet 1:—The control diet supplemented with the complex of example 2 to provide 10 mg/kg iron.
Diet 2:—The control diet supplemented with the complex of example 2 to provide 20 mg/kg iron.
1) Hemoglobin analysis is performed by anaesthetizing the rats with isoflurane and then drawing a sample of 200 μL of blood from the orbital venous plexus. Blood hemoglobin level in the sample is determined by the cyanmethemoglobin method (Hb kit MPR 3, Bochringer Mannheim GmbH, Germany), using an automated instrument (Hemocue, Baumann-Medical SA, Wetzikon, Switzerland). Commercial quality control blood samples (Dia-HT Kontrollblut, Dia MED, Cressier, Switzerland) having a range of hemoglobin levels are measured with all hemoglobin determinations.
A multiple regression equation relates amounts of iron added to the hemoglobin levels. The equation provides one straight line per diet which intercepts at zero dose.
Procedure:—Rats are housed individually in polycarbonate cages, fitted with stainless steel grids. The animals are allowed free access to distilled water. […] Fresh diet is supplied daily. Spoiling of diet by rats is reduced by covering the diet with a grid.
After 24 days, hemoglobin and weight is determined. Fifty rats with hemoglobin levels between […] are randomized into 5 groups of 10 having approximately equal mean hemoglobin and body weight. Each group of animals is fed one of the experimental diets for 14 days. The rats are fed the diets ad libitum beginning with 20 g/day at day 0. The rats have free access to distilled water. Individual food consumption is measured daily. After 14 days, the rats are weighed and hemoglobin is determined.

[2] = Lipid oxidation induction time in fish oil (Rancimat); type: physicochemical; details: fish oil in place of chicken fat, 100° C.
Method: The powder of example 3 is added to chicken fat to provide 40 mg of iron per 1000 g of fat. As a negative control, ferric sulfate is added to chicken fat to provide the same iron loading. Chicken fat without any added iron is used as a positive control.
The fat samples are heated to 100° C. and the lipid oxidation induction time is determined using a Rancimat. No difference in induction time between the fat fortified with the powder of example 3 and the positive control is determined. The induction time of the negative control is 30 to 40% less.
The procedure of example 8 is repeated except that fish oil is used in place of chicken fat. The results are similar.

[3] = diet with 10 mg/kg added Fe for 14 days
[4] = diet with 20 mg/kg added Fe for 14 days

SMILES | Initial hemoglobin, mean (standard deviation) ([1]; baseline before diet with 10 mg/kg added Fe) | Initial hemoglobin, mean (standard deviation) ([1]; baseline before diet with 20 mg/kg added Fe) | Difference in hemoglobin (final minus initial), mean [1, 3] [g/dL] | Final hemoglobin, mean [1, 3] [g/dL] | Difference in hemoglobin (final minus initial), mean [1, 4] [g/dL] | Final hemoglobin, mean [1, 4] [g/dL] | lipid oxidation induction time results compared with those of example 8 [2]
O.O.O.O.O.O.O.O=S(=O)([O-])[O-].[Fe+2] [FeSO4.7H2O, ferrous sulfate heptahydrate] | 5.12 (0.41) g/dl | 5.12 (0.40) g/dl | 3.54 | 8.66 | 6.41 | 11.53 | –
O=S(=O)([O-])[O-].O=S(=O)([O-])[O-].O=S(=O)([O-])[O-].[Fe+3].[Fe+3] [ferric sulfate] | – | – | – | – | – | – | similar
